Key:
[1] = molecular target: T1, α-L-fucosidase (Homo sapiens, UniProt P04066); experiment: Inhibition of α-L-fucosidase in human liver extract; type: biochemical; details: for inhibition at 1000 µM: 1 mM inhibitor, 0.5 mM substrate, optimal pH, mean of 2-4 determinations
T1 construct: The glycosidase activities in an extract of normal human liver were assayed; from tissue; host or cells: post mortem human liver, 37,000 g supernatant
T1 sequence (P04066 32-466): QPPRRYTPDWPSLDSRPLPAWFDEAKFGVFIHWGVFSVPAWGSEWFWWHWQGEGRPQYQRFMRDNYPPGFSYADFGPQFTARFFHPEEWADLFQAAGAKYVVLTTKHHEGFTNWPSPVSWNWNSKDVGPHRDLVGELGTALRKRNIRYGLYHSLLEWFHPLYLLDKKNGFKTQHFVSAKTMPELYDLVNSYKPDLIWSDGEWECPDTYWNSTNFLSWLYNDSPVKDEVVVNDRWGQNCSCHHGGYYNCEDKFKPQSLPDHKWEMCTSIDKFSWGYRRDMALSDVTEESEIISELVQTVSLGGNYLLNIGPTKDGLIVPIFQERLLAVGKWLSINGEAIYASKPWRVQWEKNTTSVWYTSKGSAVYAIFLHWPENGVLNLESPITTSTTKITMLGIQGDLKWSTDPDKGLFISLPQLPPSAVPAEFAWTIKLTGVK
Description: The fraction of activity lost in the presence of the inhibitor was calculated for each pH; =α-L-fucosidase activity; o=inhibition (%).
(§1) Post mortem human liver, which had been stored at -20° C. until required was homogenized in deionized water (50%, w/v) in a Potter-Elvehjem homogenizer and then centrifuged at 37,000 g for 30 min in an MSE 18 centrifuge. The resultant supernatant was used as the source of enzymic activities.
(§2) The glycosidase activities in an extract of normal human liver were assayed by using the appropriate fluorigenic 4-methylumbelliferyl glycoside substrate (Koch-Light, Haverhill, Suffolk, U.K.) with a concentration of 0.5 mM at the optimal pH of each enzyme [Burditt et al., Clin. Chim. Acta 140, 201-209 (1980)]. Human liver acidic (lysomal) and neutral (cystosolic) α-D-mannosidases were assayed similarly at their pH-optima, of 4.0 and 6.5, respectively, after separation by affinity chromatography on concanavalin A-Sepharose® (Pharmacia Ltd, Milton Keynes, Bucks, U.K.) [Phillips et al., Biochem. J. 153, 579-587 (1976)]. The residual intermediate (Golgi) α-mannosidase II activity in extracts of fibroblasts from a patient with the lysosomal storage disease, mannosidosis, was assayed at pH 5.75 using the synthetic substrate (Burditt et al, Ibid.). The specificity of the inhibitors was determined by assaying the glycosidases in the presence and absence of a 1 mM solution of each compound. The nature of the inhibition and the value of Ki were determined using the Dixon graphical procedure.
(§3) Enzymic activities were measured in the presence and absence of 1 mM inhibitor. Inhibition (%) was calculated as the fraction of activity lost in the presence of inhibitor. The values are means of two to four independent determinations.

[2] = molecular target: T2, lysosomal (acidic) α-D-mannosidase (Homo sapiens, UniProt O00754); experiment: Inhibition of lysosomal (acidic) α-D-mannosidase, fluorigenic 4-methylumbelliferyl glycoside substrate; type: biochemical; details: for inhibition at 1000 µM: 1 mM inhibitor, 0.5 mM substrate, pH 4.0, mean of 2-4 determinations
T2 construct: Post mortem human liver, which had been stored at -20° C; from tissue; host or cells: post mortem human liver, 37,000 g supernatant; concanavalin A-Sepharose fraction
T2 sequence (O00754 50-1011): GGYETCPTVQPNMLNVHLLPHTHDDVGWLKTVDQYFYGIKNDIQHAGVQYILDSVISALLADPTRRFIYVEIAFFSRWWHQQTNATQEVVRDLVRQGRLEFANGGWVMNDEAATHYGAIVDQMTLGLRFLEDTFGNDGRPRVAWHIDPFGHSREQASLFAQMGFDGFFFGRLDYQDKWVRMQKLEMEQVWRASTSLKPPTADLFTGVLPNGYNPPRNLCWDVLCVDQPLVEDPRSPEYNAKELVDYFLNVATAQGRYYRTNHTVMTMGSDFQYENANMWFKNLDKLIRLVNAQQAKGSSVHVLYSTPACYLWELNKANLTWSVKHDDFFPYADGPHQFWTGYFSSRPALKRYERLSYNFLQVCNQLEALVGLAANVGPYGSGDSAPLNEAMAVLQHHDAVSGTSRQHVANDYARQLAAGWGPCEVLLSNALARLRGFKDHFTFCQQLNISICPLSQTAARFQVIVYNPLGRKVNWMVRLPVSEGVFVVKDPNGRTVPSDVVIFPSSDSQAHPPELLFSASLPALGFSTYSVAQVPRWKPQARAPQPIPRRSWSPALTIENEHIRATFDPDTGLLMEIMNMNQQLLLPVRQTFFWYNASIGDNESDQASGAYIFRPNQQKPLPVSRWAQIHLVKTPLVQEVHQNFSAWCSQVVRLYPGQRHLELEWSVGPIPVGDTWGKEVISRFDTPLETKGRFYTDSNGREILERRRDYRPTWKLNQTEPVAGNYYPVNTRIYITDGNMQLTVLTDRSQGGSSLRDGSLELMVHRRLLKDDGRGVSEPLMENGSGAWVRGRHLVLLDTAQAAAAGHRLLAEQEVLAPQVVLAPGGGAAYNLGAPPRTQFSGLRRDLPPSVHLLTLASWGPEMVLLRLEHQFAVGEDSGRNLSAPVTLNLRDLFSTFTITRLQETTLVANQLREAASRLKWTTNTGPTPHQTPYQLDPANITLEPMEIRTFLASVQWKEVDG
Description: as §1, §2, §3

| inhibition at 1000 µM [1] | nature of the inhibition ([1]; Dixon graphical procedure) | pH-dependence of inhibition ([1]; FIG. 1) | Ki ([1]; pH 5.5, Dixon graphical procedure) | inhibition at 1000 µM [2] | Structure (SMILES) | inhibition of lysosomal α-D-mannosidase (in words) [2] | Ki ([2]; pH optimum of 4.0, Dixon graphical procedure) |
| --- | --- | --- | --- | --- | --- | --- | --- |
| 74% | competitive | pH-dependent | 50 µM | 3% | OC[C@H](O)[C@H]1[C@H](O)[C@H](O)CN1Cc1ccccc1 [N-benzyl DIA, N-benzyl-1,4-dideoxy-1,4-imino-L-allitol] |  |  |
| 28% |  |  |  | 13% | CN1C[C@@H](O)[C@@H](O)[C@@H]1[C@@H](O)CO [N-methyl DIA, N-methyl-1,4-dideoxy-1,4-imino-L-allitol] |  |  |

| Structure (SMILES) | inhibition at 1000 µM [1] | nature of the inhibition ([1]; Dixon graphical procedure) | pH-dependence of inhibition ([1]; FIG. 1) | Ki ([1]; pH 5.5, Dixon graphical procedure) | inhibition at 1000 µM [2] | inhibition of lysosomal α-D-mannosidase (in words) [2] | Ki ([2]; pH optimum of 4.0, Dixon graphical procedure) |
| --- | --- | --- | --- | --- | --- | --- | --- |
| OC[C@H](O)[C@@H]1NC[C@@H](O)[C@H]1O [DIA, 1,4-dideoxy-1,4-imino-L-allitol] | 60% |  |  |  | 84% | good inhibitor | 170 µM |
